# Assay results published in US10351525B2, “Beta lactamase inhibitors” (Oxford University Innovation Limited, priority 2014, dated 2019).
# How the values were obtained:
# E. coli IR60 (NDM-1) = test: Meropenem MIC with and without inhibitor; format: cell-based, Escherichia coli
# Procedure: (§1) Further studies were carried out to determine if ML302F/ML302 potentiates β-lactam antibiotic activity in clinically derived strains containing IMP-1, IMP-4, VIM-4 or NDM-1, which are the most commonly observed MBLs in clinical isolates. All strains producing MBLs were confirmed as resistant to meropenem at the Clinical and Laboratory Standards Institute (U.S.A.) defined breakpoint of 8 μg/mL for Enterobacteriace (see Table 2 below). The minimum inhibitory concentration (MIC) of meropenem against wildtype and MBL producing Escherichia coli and Klebsiella pneumoniae strains was determined with and without increasing concentrations of ML302 or ML302F. Clinical and Laboratory Standards Institute. 2012. Methods for dilution antimicrobial susceptibility tests for bacteria that grow aerobically; 9th ed. Approved standard M07-A9. CLSI, Wayne, Pa.; and Clinical and Laboratory Standards Institute. 2012. Performance standards for antimicrobial susceptibility testing; 22nd informational supplement M100-S22. CLSI, Wayne, Pa.
# E. coli MG1655 (IMP-1) = test: Meropenem MIC with and without inhibitor; format: cell-based, Escherichia coli; settings: for Meropenem MIC in the presence of inhibitor: E. coli MG1655 (IMP-1)
# Procedure: as §1
# [1] = test system: MBL producing Escherichia coli and Klebsiella pneumoniae strains; test: Potentiation of meropenem; format: cell-based; settings: for Inhibitor concentration that conferred meropenem sensitivity (lowest tested): IMP producers; for Synergy with meropenem: MBL producing strains
# Procedure: as §1
# [2] = test system: K. pneumoniae NCTC 5055 (IMP-1); test: Meropenem MIC with and without inhibitor; format: cell-based, Klebsiella pneumoniae; settings: for Meropenem MIC in the presence of inhibitor: K. pneumoniae NCTC 5055 (IMP-1)
# Procedure: as §1
# [3] = test system: K. pneumoniae A34 (VIM-4); test: Meropenem MIC with and without inhibitor; format: cell-based, Klebsiella pneumoniae
# Procedure: as §1
# [4] = test system: K. pneumoniae B19 (IMP-4); test: Meropenem MIC with and without inhibitor; format: cell-based, Klebsiella pneumoniae
# Procedure: as §1
# TEM-1 = TEM-1 (Escherichia coli, UniProt P62593); test: Inhibition studies TEM-1; format: biochemical; settings: for Inhibition verdict: TEM-1, 100 μM; for remaining activity at 100 µM: read-out: RA (residual activity); on Inhibition verdict: key: N.I.—not inhibited
# TEM-1, sequence (P62593 24-286 limits assumed): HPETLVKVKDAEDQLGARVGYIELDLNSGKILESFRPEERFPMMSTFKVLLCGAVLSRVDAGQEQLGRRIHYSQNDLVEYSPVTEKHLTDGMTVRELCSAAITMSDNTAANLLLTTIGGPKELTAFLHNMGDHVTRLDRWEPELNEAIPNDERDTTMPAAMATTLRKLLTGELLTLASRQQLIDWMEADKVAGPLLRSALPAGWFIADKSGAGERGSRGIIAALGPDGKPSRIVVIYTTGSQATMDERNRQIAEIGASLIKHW
# Procedure: To investigate the selectivity of ML302/ML302F for bacterial MBLs, activity was tested against TEM-1 (a Class A SBL), PBP-5 (penicillin-binding protein 5 or dacA) and PBP-6 (penicillin-binding protein 6, or dacC) from E. coli, hHAT (human histone acetyltransferase) and hHDAC (human histone deacetylase). TEM-1, PBP-5 and -6 and hHAT are known to be inhibited by rhodanines. Selectively against hACE-2 (Angiotensin converting enzyme 2) and hHAGH (Hydroxyacylglutathione hydrolase, human Glyoxylase II) was also tested.
# The inhibition analysis for TEM-1 was performed using the modified method that was previously described for MBLs.21 In brief: ML302 and ML302F were screened at a single concentration (100 μM) in duplicate. Inhibition was tested by pre-incubation of the appropriate amount of TEM-1 (1 nM final concentration) and ML302 or ML302F in the assay buffer (50 mM HEPES-NaOH buffer (pH 7.2) supplemented with 0.01% Triton 100) for 10 min. at r.t. prior to the initiation of the assay by the addition of FC5 ((6R,7R)-8-Oxo-3-(((2-oxo-2H-chromen-7-yl)oxy)methyl)-7-(2-phenylacetamido)-5-thia-1-azabicyclo[4.2.0]oct-2-ene-2-carboxylic acid 5,5-dioxide)21 (10 μM final concentration). The hydrolysis of FC5 was monitored by following the variation on fluorescence reading (380 nm—excitation and 460 nm—emission) using 384 well flat bottom plates (Greiner Bio-One). The experiments were performed on a PHERAstar FS-BMG Labtech microplate reader at r.t. (24-25° C.). All enzymes and inhibitors were prepared in the assay buffer.
# VIM-2 = target: T1, VIM-2 (Escherichia coli, UniProt Q5U7L7); test: MBL screening assay (IC50), VIM-2; format: biochemical
# T1 construct: made in house; host or cells: Escherichia coli
# Procedure: (§2) Recombinant forms of NDM-1, NDM-1 M67C, VIM-1, VIM-2, SPM-1, IMP-1 and BcII MBLs were produced in Escherichia coli as described in J. Med. Chem. 56, 6945-6953 (2013) and Makena et al Chem MechCHem 8, 1923-9 (2013). Purified VIM-2 protein was dialysed into fresh crystallization buffer (50 mM HEPES pH 7.5, 150 mM NaCl and […], concentrated to 7.5 mg/mL and used for crystallographic analyses.
# (§3) Kinetic and inhibition analyses and UV-VIS studies^16 against bacterial MBLs were performed as described by Van Berkel et al in J. Med. Chem. 56, 6945-6953 (2013) and Makena et al Chem MechCHem 8, 1923-9 (2013).
# (§4) The experiments were performed by using a NovaStar microplate reader (using path length correction) and were performed at r.t. (24-25° C.). All enzymes and substrates were dissolved in the assay buffer: 50 mM HEPES-NaOH buffer (pH 7.2) supplemented with 1 μg/mL BSA (to minimize the denaturation of the enzyme), 1 μM ZnSO4 and 0.01% Triton 100. Screening was carried out against a panel of MBLs including NDM-1, VIM-1, VIM-2, SPM-1 (Sao Paulo MBL-1) and IMP-1 and the non-clinically relevant model MBL Bacillus cereus (BcII).
# The kinetic values determined were the means from at least three independent measurements. At least six different concentrations of the substrate or inhibitor were used to determinate the kinetic parameters (KM, kcat and IC50). Determination of the steady state kinetic parameters for the hydrolysis of different substrates (KM and kcat) was performed by fitting the initial velocity data to the Michaelis-Menten equation using the software package Graph Prism 5.01. The IC50 values were determined from the plot of activity (steady state rate) versus inhibitor concentration using the same software.
# IC50 values (concentration required to affect 50% inhibition of enzyme activity) were determined by preincubation of the appropriate amount of enzyme with the desired compound in the assay buffer for 10 min at r.t. prior to the initiation of the assay by the addition of the substrate. The compounds for inhibition study were prepared in 1 to 100 mM DMSO stock solutions.
# BcII = target: T2, BcII (Bacillus cereus, UniProt P04190); test: MBL screening assay (IC50), BcII; format: biochemical
# T2 construct: made in house; host or cells: Escherichia coli
# T2 sequence (P04190 31-257): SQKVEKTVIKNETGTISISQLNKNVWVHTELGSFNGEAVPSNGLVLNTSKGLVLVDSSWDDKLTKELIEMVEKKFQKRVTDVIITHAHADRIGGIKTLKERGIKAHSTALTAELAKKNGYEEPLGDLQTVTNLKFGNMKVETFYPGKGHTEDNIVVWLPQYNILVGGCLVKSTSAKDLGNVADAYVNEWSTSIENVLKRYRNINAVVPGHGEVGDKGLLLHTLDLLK
# Procedure: as §2, §3, §4
# (§5) The kinetic values determined were the means from at least three independent measurements. […] The IC50 values were determined from the plot of activity (steady state rate) versus inhibitor concentration using the same software. […]
# IMP-1 = target: T3, IMP-1 (Serratia marcescens, UniProt P52699); test: MBL screening assay (IC50), IMP-1; format: biochemical
# T3 construct: made in house; host or cells: Escherichia coli
# T3 sequence (P52699 19-246 limits assumed): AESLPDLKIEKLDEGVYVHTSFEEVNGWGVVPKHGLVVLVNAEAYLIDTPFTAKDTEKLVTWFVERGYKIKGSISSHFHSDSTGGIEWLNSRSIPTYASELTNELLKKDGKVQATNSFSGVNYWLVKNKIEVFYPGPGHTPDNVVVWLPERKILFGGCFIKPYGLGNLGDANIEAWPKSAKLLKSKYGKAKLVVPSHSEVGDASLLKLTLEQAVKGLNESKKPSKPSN
# Procedure: as §2, §3, §4, §5
# [5] = Klebsiella pneumoniae, read-out: Meropenem MIC in the absence of inhibitor
Compound,Meropenem MIC in the presence of inhibitor (E. coli IR60 (NDM-1); inhibitor 10 mg/L) [µg/mL],Meropenem MIC in the presence of inhibitor (E. coli IR60 (NDM-1); inhibitor 25 mg/L) [µg/mL],Meropenem MIC in the presence of inhibitor (E. coli IR60 (NDM-1); inhibitor 50 mg/L) [µg/mL],Meropenem MIC in the presence of inhibitor (E. coli IR60 (NDM-1); inhibitor 100 mg/L) [µg/mL],Meropenem MIC in the presence of inhibitor (E. coli MG1655 (IMP-1); inhibitor 10 mg/L) [µg/mL],Meropenem MIC in the presence of inhibitor (E. coli MG1655 (IMP-1); inhibitor 25 mg/L) [µg/mL],Meropenem MIC in the presence of inhibitor (E. coli MG1655 (IMP-1); inhibitor 50 mg/L) [µg/mL],Meropenem MIC in the presence of inhibitor (E. coli MG1655 (IMP-1); inhibitor 100 mg/L) [µg/mL],Inhibitor concentration that conferred meropenem sensitivity (lowest tested) [1] [µg/mL],Synergy with meropenem [1],Meropenem MIC in the presence of inhibitor ([2]; inhibitor 10 mg/L) [µg/mL],Meropenem MIC in the presence of inhibitor ([2]; inhibitor 25 mg/L) [µg/mL],Meropenem MIC in the presence of inhibitor ([2]; inhibitor 50 mg/L) [µg/mL],Meropenem MIC in the presence of inhibitor ([3]; inhibitor 10 mg/L) [µg/mL],Meropenem MIC in the presence of inhibitor ([3]; inhibitor 25 mg/L) [µg/mL],Meropenem MIC in the presence of inhibitor ([3]; inhibitor 50 mg/L) [µg/mL],Meropenem MIC in the presence of inhibitor ([3]; inhibitor 100 mg/L) [µg/mL],Meropenem MIC in the presence of inhibitor ([4]; inhibitor 10 mg/L) [µg/mL],Meropenem MIC in the presence of inhibitor ([4]; inhibitor 25 mg/L) [µg/mL],Meropenem MIC in the presence of inhibitor ([4]; inhibitor 50 mg/L) [µg/mL],further results
"CN1CCN(NC(=O)CN2C(=O)C(=Cc3c(Cl)ccc(Cl)c3Cl)SC2=S)CC1 (mixture of isomers) [ML302, N-(4-Methylpiperazin-1-yl)-2-(4-oxo-2-thioxo-5-(2,3,6-trichlorobenzylidene)thiazolidin-3-yl)acetamide]",8,8,4,2,0.5,≤ 0.25,≤ 0.25,≤ 0.25,10,Synergy between ML302 and meropenem was observed for all MBL producing strains,≤ 0.25,≤ 0.25,≤ 0.25,32,8,4,4,0.5,≤ 0.25,≤ 0.25,"Inhibitor concentration giving meropenem sensitivity ([1]; read-out: Inhibitor concentration at which clinically relevant meropenem sensitivity (MIC<8 μg/mL) achieved): 50 µg/mL; Inhibition verdict (TEM-1): N.I.; remaining activity at 100 µM (TEM-1): 98.6 ± 7.1%; IC50 (VIM-2; IC50, VIM-2): 0.49 ± 0.18 µM; IC50 (VIM-2; IC50 value against VIM-2 obtained using this assay, VIM-2): 0.498 ± 0.018 µM; IC50 (BcII): 0.5 ± 0.15 µM; IC50 (IMP-1): 0.175 ± 0.06 µM"
"C[C@@H](O)[C@H]1C(=O)N2C(C(=O)O)=C(S[C@@H]3CN[C@H](C(=O)N(C)C)C3)[C@H](C)[C@H]12 [Meropenem, meropenem]",,,,,,,,,,,,,,,,,,,,,"MIC (E. coli IR60 (NDM-1); Escherichia coli, read-out: Meropenem MIC in the absence of inhibitor): 16 µg/mL; MIC (E. coli MG1655 (IMP-1); Escherichia coli, MG1655, read-out: Meropenem MIC in the absence of inhibitor): 32 µg/mL; MIC ([2]; Klebsiella pneumoniae, NCTC5055, read-out: Meropenem MIC in the absence of inhibitor): 32 µg/mL; MIC [3, 5]: 128 µg/mL; MIC [4, 5]: 16 µg/mL"
"O=C(O)C(S)=Cc1c(Cl)ccc(Cl)c1Cl (racemic) [ML302F, 2-Mercapto-3-(2,3,6-trichlorophenyl)acrylic acid]",16,16,8,8,4,4,2,0.5,10,displayed synergy with meropenem,4,0.5,0.5,64,32,32,16,2,1,0.5,"Meropenem MICs in the presence of ML302F relative to the same ML302 concentration, fold higher [1]: up to 8 fold; Inhibition verdict (TEM-1): N.I.; remaining activity at 100 µM (TEM-1): 99.6 ± 3.1%; IC50 (VIM-2; IC50, VIM-2): 0.3 ± 0.09 µM; IC50 (BcII): 0.02 µM; IC50 (IMP-1): 0.00288 µM"
